# From ChEMBL document CHEMBL3804754, “Optimization of Novel Aza-benzimidazolone mGluR2 PAMs with Respect to LLE and PK Properties and Mitigation of CYP TDI” (ACS Med Chem Lett, 2016)
# The source made the active and inactive calls. The calls are words filed in the database; no cut-off is given here.
# Key:
# [1] = (§1) AUC in Wistar Hannover rat at 10 mg/kg, po administered as single dose; format: ADME, organism-based; conditions: Wistar Hannover, in vivo
# [2] = (§2) Oral bioavailability in Wistar Hannover rat at 10 mg/kg administered as single dose; format: ADME, organism-based; conditions: Wistar Hannover, in vivo
# [3] = Clearance in Wistar Hannover rat at 2 mg/kg, iv administered as single dose; format: ADME, organism-based; conditions: in vivo
# [4] = Solubility of compound at pH 7; format: physicochemical; conditions: buffer
# [5] = Half life in Wistar Hannover rat at 2 mg/kg, iv administered as single dose; format: ADME, organism-based; conditions: in vivo
# [6] = biological target: T1, Metabotropic glutamate receptor 2 (Homo sapiens, UniProt Q14416); experiment: Positive allosteric modulation of recombinant human mGlu2 receptor expressed in CHO cells assessed as potentiation of glutamate-induced effect preincubated for 5 mins followed by glutamate stimulation for 3 mins by Fluo-4AM staining-based FLIPR assay; format: cell-based
# [7] = test system: Rattus norvegicus; experiment: Fraction unbound adjusted clearance in Wistar Hannover rat at 2 mg/kg, iv administered as single dose; format: ADME, organism-based; conditions: in vivo
# [8] = biological target: Metabotropic glutamate receptor 6 (Homo sapiens, UniProt O15303); experiment: Positive allosteric modulation of mGlu6 receptor (unknown origin)
# [9] = biological target: Metabotropic glutamate receptor 4 (Homo sapiens, UniProt Q14833); experiment: Positive allosteric modulation of mGlu4 receptor (unknown origin)
# [10] = biological target: Metabotropic glutamate receptor 3 (Homo sapiens, UniProt Q14832); experiment: Positive allosteric modulation of mGlu3 receptor (unknown origin)
# [11] = biological target: Metabotropic glutamate receptor 5 (Homo sapiens, UniProt P41594); experiment: Positive allosteric modulation of mGlu5 receptor (unknown origin)
# [12] = biological target: 5-hydroxytryptamine receptor 2A (Homo sapiens) (UniProt P28223); experiment: Activity at 5HT2A receptor (unknown origin)
# [13] = test system: Salmonella typhimurium; experiment: Mutagenicity in Salmonella typhimurium by Ames test in absence of S9 liver fraction; format: toxicity, organism-based; conditions: salmonella enterica subsp. enterica serovar typhimurium
# [14] = Fraction unbound in Wistar Hannover rat plasma at 2 mg/kg, iv administered as single dose; format: ADME, organism-based
# [15] = Fraction unbound in Beagle dog plasma at 0.5 mg/kg, iv administered as single dose; format: ADME, organism-based, Canis lupus familiaris
# [16] = test system: Cerebrospinal fluid; experiment: Drug uptake in Sprague-Dawley rat cerebrospinal fluid at 30 mg/kg, po; format: ADME, organism-based; conditions: in vivo, read-out: Drug uptake
# [17] = biological target: T2, CYP3A4 (Homo sapiens, UniProt P08684); experiment: Inhibition of CYP3A4 in human liver microsomes at 10 uM; format: ADME
# [18] = biological target: D(2) dopamine receptor (Homo sapiens) (UniProt P14416); experiment: Activity at dopamine D2 receptor (unknown origin)
# [19] = species on record: Homo sapiens; experiment: Activity at PDE10 (unknown origin)
# [20] = Half life in Beagle dog at 0.5 mg/kg, iv administered as single dose; format: ADME, organism-based, Canis lupus familiaris; conditions: in vivo
# [21] = test system: Salmonella typhimurium; experiment: Mutagenicity in Salmonella typhimurium by Ames test in presence of S9 liver fraction; format: toxicity, organism-based; conditions: salmonella enterica subsp. enterica serovar typhimurium
# [22] = test system: Canis familiaris; experiment: Fraction unbound adjusted clearance in Beagle dog at 0.5 mg/kg, iv administered as single dose; format: ADME, organism-based, Canis lupus familiaris; conditions: in vivo
# [23] = test system: Rattus norvegicus; experiment: Antipsychotic activity in Sprague-Dawley rat assessed as inhibition of MK-801-induced hyperlocomotive activity at 30 mg/kg, treated for 30 mins followed by MK-801 challenge measured over 90 mins relative to vehicle control; format: functional, organism-based
# [24] = biological target: T1, Metabotropic glutamate receptor 2; experiment: Positive allosteric modulation of recombinant human mGlu2 receptor expressed in CHO cells assessed as decrease in glutamate EC50 at 1 uM preincubated for 5 mins followed by glutamate stimulation for 3 mins by Fluo-4AM staining-based FLIPR assay relative to control; format: cell-based
# Target sequence in this assay (Q14416 19-872 limits assumed): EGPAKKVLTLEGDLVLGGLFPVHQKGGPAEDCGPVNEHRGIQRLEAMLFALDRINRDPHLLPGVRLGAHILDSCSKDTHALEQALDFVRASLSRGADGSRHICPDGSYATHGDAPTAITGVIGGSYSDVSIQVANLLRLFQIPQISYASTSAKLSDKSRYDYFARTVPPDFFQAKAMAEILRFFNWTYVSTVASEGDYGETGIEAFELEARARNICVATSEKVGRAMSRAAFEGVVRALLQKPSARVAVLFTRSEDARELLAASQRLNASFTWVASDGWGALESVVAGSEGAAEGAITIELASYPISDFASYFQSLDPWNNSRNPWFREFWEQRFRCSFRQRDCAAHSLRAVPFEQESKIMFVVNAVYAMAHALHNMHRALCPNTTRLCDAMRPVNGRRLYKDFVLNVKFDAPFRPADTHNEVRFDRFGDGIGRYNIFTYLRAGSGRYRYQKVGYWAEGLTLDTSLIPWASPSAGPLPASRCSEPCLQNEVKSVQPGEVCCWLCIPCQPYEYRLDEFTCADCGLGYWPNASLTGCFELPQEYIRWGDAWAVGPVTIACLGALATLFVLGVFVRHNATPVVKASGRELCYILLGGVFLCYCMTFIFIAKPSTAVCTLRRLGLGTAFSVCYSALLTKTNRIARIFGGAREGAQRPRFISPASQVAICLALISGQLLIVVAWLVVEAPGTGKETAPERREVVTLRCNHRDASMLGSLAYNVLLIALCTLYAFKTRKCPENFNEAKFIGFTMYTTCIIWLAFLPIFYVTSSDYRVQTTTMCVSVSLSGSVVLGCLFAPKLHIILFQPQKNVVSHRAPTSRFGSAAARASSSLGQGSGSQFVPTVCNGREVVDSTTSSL
# [25] = biological target: T1, Metabotropic glutamate receptor 2; experiment: Agonist activity at recombinant human mGlu2 receptor expressed in CHO cells assessed as potentiation of glutamate-induced effect preincubated for 5 mins followed by glutamate stimulation for 3 mins by Fluo-4AM staining-based FLIPR assay; format: cell-based
# [26] = test system: Plasma; experiment: Plasma concentration in Sprague-Dawley rat at 10 mg/kg, po; format: ADME, organism-based; conditions: in vivo
# [27] = biological target: Metabotropic glutamate receptor 2 (Rattus norvegicus, UniProt P31421); experiment: Positive allosteric modulation of rat mGlu2 receptor assessed as potentiation of glutamate-induced effect by Fluo-4AM staining-based FLIPR assay
# [28] = Substrate activity at human P-gp assessed as apparent permeability; format: ADME
# [29] = biological target: T2, CYP3A4; experiment: (§3) Time dependent inhibition of CYP3A4 in human liver microsomes; format: ADME; conditions: human, liver microsomes
# [30] = biological target: Cytochrome P450 3A4 (Homo sapiens, UniProt P08684); experiment: as §3; format: ADME
# [31] = Clearance in Beagle dog at 0.5 mg/kg, iv administered as single dose; format: ADME, organism-based, Canis lupus familiaris; conditions: in vivo
# [32] = Oral bioavailability in Beagle dog at 1 mg/kg administered as single dose; format: ADME, organism-based, Canis lupus familiaris; conditions: in vivo
# [33] = Intrinsic clearance in dog liver microsomes at 10 uM incubated for 20 to 60 mins by LC-HRMS analysis in presence of NADPH/GSH; format: ADME, Canis lupus familiaris; conditions: read-out: CLH
# [34] = test system: P-gp; experiment: Substrate activity at rat P-gp assessed as efflux ratio of apparent permeability from basolateral to apical side to apical to basolateral side; format: ADME; conditions: not told
# [35] = test system: Rattus norvegicus; experiment: Antipsychotic activity in Sprague-Dawley rat assessed as inhibition of MK-801-induced hyperlocomotive activity at 10 mg/kg, treated for 30 mins followed by MK-801 challenge measured over 90 mins relative to vehicle control; format: functional, organism-based
# [36] = test system: P-gp; experiment: Substrate activity at rat P-gp assessed as apparent permeability; format: ADME; conditions: not told
# [37] = AUC in Beagle dog at 1 mg/kg, po administered as single dose; format: ADME, organism-based, Canis lupus familiaris; conditions: in vivo
# [38] = test system: Rattus norvegicus; experiment: as §1; format: ADME, organism-based; conditions: in vivo
# [39] = test system: Rattus norvegicus; experiment: as §2; format: ADME, organism-based; conditions: in vivo
# Chain of Metabotropic glutamate receptor 6 (O15303 whole entry): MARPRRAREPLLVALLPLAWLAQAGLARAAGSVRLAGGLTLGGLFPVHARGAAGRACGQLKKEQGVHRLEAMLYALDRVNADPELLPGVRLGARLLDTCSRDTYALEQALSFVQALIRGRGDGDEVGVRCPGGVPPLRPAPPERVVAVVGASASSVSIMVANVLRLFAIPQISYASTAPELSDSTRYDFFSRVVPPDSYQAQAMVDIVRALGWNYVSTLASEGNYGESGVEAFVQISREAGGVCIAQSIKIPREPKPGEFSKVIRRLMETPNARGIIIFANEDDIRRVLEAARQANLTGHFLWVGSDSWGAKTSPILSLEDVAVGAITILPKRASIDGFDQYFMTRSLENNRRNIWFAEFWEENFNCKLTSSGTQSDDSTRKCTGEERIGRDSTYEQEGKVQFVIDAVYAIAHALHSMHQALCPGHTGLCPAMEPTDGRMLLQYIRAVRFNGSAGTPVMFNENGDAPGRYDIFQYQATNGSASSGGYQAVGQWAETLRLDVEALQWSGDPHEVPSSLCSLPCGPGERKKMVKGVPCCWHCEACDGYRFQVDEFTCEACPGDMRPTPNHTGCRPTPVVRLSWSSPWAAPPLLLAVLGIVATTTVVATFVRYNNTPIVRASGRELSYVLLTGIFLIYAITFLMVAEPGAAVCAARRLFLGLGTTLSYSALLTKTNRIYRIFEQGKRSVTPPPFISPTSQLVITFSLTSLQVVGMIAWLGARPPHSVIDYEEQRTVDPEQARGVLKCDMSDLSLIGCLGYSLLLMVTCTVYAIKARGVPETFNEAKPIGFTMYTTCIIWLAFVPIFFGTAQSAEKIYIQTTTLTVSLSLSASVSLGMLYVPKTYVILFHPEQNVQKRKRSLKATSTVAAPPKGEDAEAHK
# Chain of Metabotropic glutamate receptor 3 (Q14832 whole entry): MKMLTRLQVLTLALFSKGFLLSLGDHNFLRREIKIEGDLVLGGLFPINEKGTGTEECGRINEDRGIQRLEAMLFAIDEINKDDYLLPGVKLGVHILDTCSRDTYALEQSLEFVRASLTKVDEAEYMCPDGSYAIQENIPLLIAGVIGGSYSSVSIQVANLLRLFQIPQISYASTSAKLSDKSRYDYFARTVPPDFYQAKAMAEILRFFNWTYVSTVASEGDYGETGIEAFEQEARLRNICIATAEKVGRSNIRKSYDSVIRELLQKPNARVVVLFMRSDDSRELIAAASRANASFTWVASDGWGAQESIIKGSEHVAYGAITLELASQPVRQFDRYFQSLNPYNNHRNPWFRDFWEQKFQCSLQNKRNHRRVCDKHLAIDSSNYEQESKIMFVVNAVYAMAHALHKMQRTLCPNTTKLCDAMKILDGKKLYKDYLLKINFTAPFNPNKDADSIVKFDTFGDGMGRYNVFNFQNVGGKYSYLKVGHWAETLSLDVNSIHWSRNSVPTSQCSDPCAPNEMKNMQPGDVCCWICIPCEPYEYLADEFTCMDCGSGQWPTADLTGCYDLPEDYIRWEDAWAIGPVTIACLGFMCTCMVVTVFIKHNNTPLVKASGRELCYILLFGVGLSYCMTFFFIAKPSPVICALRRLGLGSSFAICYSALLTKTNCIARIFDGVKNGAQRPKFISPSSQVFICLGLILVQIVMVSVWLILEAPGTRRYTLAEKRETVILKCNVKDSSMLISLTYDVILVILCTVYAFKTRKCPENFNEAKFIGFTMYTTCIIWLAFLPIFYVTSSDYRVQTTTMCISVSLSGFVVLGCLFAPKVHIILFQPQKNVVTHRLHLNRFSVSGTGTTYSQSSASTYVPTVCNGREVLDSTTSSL
# Chain of Metabotropic glutamate receptor 5 (P41594 whole entry): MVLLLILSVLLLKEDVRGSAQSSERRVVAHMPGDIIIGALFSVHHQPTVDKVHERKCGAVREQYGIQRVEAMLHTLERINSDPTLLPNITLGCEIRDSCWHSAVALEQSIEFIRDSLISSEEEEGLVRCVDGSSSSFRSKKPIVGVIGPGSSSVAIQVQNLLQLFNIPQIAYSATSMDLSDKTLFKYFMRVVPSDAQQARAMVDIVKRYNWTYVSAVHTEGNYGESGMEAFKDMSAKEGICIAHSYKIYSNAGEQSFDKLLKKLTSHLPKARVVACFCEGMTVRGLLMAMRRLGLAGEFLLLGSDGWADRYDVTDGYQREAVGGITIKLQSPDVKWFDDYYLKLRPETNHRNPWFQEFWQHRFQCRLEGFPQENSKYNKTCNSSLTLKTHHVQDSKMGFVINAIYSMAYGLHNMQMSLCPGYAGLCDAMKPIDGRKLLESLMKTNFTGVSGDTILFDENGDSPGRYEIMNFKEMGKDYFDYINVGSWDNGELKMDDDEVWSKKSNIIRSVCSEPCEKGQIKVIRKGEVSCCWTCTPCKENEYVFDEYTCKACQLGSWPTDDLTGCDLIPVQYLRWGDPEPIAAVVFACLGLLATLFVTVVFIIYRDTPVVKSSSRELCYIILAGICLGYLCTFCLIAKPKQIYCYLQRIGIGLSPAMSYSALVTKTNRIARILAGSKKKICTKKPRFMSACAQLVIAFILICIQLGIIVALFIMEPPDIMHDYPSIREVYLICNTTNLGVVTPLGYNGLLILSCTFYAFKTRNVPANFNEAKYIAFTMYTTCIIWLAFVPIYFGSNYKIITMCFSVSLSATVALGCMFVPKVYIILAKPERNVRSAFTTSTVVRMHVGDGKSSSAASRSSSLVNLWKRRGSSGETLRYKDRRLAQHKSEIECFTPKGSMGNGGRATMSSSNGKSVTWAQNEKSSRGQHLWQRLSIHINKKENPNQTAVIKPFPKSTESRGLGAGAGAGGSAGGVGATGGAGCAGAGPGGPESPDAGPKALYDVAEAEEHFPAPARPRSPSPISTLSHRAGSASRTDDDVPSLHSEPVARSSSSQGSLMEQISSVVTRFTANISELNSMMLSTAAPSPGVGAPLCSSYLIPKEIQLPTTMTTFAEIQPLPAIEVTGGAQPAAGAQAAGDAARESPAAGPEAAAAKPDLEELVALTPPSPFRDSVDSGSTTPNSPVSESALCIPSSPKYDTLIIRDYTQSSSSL
# Chain of Metabotropic glutamate receptor 4 (Q14833 whole entry): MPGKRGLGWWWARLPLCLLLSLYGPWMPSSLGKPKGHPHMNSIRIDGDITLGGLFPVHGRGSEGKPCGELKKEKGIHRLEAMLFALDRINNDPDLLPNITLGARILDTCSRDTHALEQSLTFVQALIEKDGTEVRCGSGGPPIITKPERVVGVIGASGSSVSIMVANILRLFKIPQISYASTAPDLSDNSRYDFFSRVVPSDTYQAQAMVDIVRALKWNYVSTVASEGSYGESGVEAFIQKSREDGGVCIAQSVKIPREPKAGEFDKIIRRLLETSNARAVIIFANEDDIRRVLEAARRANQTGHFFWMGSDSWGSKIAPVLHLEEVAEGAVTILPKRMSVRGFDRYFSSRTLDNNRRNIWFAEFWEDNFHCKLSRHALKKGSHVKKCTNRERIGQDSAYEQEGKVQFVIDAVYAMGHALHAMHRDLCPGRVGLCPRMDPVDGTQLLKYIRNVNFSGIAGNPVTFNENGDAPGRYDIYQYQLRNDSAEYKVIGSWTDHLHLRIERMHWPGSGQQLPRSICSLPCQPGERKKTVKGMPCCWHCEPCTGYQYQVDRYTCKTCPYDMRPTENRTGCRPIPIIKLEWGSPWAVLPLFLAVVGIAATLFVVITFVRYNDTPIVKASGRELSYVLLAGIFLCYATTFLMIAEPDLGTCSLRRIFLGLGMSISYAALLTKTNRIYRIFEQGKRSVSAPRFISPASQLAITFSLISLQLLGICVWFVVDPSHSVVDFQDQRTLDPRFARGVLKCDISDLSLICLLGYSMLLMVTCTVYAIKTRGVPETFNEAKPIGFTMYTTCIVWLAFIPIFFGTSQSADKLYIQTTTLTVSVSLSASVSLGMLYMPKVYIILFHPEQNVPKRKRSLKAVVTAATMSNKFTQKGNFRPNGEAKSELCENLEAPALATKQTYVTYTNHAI
smiles,measurement,setting,value
Cn1c(=O)n(CC(C)(C)C)c2ccc(N3CC4CCC3CN4C(=O)c3ccccc3)nc21 (racemic),AUC,[1],2 µM·h
same,bioavailability,[2],10%
same,clearance,[3],69 mL/min/kg
same,solubility,[4],66 µM
same,half-life,[5],1.2 h
same,%max,[6],71%
same,EC50,[6],0.036 µM
same,CL free,[7],35 mL/min/kg
Cn1c(=O)n(CC(C)(C)C)c2ccc(N3CC4CCC3CN4c3ncccn3)nc21 (racemic),AUC,[1],3.9 µM·h
same,solubility,[4],18 µM
same,%max,[6],65%
same,EC50,[6],0.037 µM
Cn1c(=O)n(CC(C)(C)C)c2ccc(N3CCCC4CCCCC43)nc21 (mixture of isomers),EC50,[8],> 30 µM
same,EC50,[9],> 30 µM
same,EC50,[10],> 30 µM
same,%max,[6],77%
same,EC50,[6],2.2 µM
same,EC50,[11],> 30 µM
Cn1c(=O)n(CC(C)(C)C)c2ccc(C3=C[C@@H]4CC[C@H]3CN4C(=O)c3ccon3)nc21,Activity,[12],inactive
same,Activity,[13],Non-toxic
same,EC50,[8],> 30 µM
same,fraction unbound,[14],0.02
same,EC50,[9],> 30 µM
same,fraction unbound,[15],0.02
same,concentration,[16],61 nM
same,inhibition at 10 µM,[17],6%
same,Activity,[18],inactive
same,Activity,[19],inactive
same,half-life,[5],10 h
same,EC50,[10],> 30 µM
same,half-life,[20],16 h
same,Activity,[21],Non-toxic
same,%max,[6],78%
same,CL free,[22],4.7 mL/min/kg
same,CL free,[7],17 mL/min/kg
same,EC50,[11],> 30 µM
same,Activity,[23],Active
Cn1c(=O)n(CC(C)(C)C)c2ccc(N3CC4CCC3CN4C(=O)OC(C)(C)C)nc21 (racemic),EC50,[8],> 30 µM
same,EC50,[9],> 30 µM
same,EC50,[10],> 30 µM
same,%max,[6],70%
same,EC50,[6],0.125 µM
same,EC50,[11],> 30 µM
Cc1cc(CN2CC3CCC2CN3c2ccc3c(n2)n(C)c(=O)n3CC(C)(C)C)no1 (racemic),AUC,[1],2 µM·h
same,solubility,[4],186 µM
same,%max,[6],74%
same,EC50,[6],0.149 µM
Cn1c(=O)n(CC(C)(C)C)c2ccc(N3C[C@@H]4CC[C@H]3CN4C(=O)c3ccon3)nc21,AUC,[1],14 µM·h
same,fold change (FC),[24],12
same,%max,[25],35%
same,EC50,[25],0.668 µM
same,concentration,[26],3200 nM
same,EC50,[8],> 30 µM
same,fraction unbound,[14],0.06
same,EC50,[27],0.075 µM
same,Activity,[28],Not Active
same,bioavailability,[2],72%
same,kinact,[29],0.00107 s⁻¹
same,Ki,[30],0.54 µM
same,TDI,"[30]; human, microsomes",Active
same,clearance,[3],28 mL/min/kg
same,EC50,[9],> 30 µM
same,fraction unbound,[15],0.08
same,solubility,[4],125 µM
same,inhibition at 10 µM,[17],73%
same,half-life,[5],2.3 h
same,EC50,[10],> 30 µM
same,half-life,[20],12 h
same,clearance,[31],7 mL/min/kg
same,bioavailability,[32],24%
same,CLint scaled at 10 µM,[33],< 55 mL/min/kg
same,%max,[6],78%
same,EC50,[6],0.029 µM
same,CL free,[22],0.9 mL/min/kg
same,efflux ratio,[34],1.5
same,CL free,[7],4.7 mL/min/kg
same,Activity,[35],Active
same,Papp,[36],31 ×10⁻⁶ cm/s
same,EC50,[11],> 30 µM
same,AUC,[37],1.3 µM·h
same,Activity,[23],Active
Cn1c(=O)n(CC(C)(C)C)c2ccc(N3C[C@@H]4CC[C@H]3CN4C(=O)c3csnn3)nc21,AUC,[1],13 µM·h
same,fold change (FC),[24],26
same,%max,[25],49%
same,EC50,[25],0.637 µM
same,EC50,[8],> 30 µM
same,Activity,[28],Not Active
same,EC50,[9],> 30 µM
same,solubility,[4],116 µM
same,EC50,[10],> 30 µM
same,half-life,[20],2.5 h
same,clearance,[31],14 mL/min/kg
same,%max,[6],72%
same,EC50,[6],0.029 µM
same,efflux ratio,[34],1.1
same,Papp,[36],30 ×10⁻⁶ cm/s
same,EC50,[11],> 30 µM
Cn1c(=O)n(CC(C)(C)C)c2ccc(N3CCCc4ccccc43)nc21,EC50,[8],> 30 µM
same,EC50,[9],> 30 µM
same,EC50,[10],> 30 µM
same,%max,[6],60%
same,EC50,[6],0.332 µM
same,EC50,[11],> 30 µM
Cn1c(=O)n(CC(C)(C)C)c2ccc(C3CCN(C(=O)c4ccon4)CC3)nc21,inhibition at 10 µM,[17],7%
same,%max,[6],79%
same,EC50,[6],0.531 µM
Cn1c(=O)n(CC(C)(C)C)c2ccc(N3CC4CCC3CN4)nc21 (racemic),EC50,[8],> 30 µM
same,EC50,[9],> 30 µM
same,EC50,[10],> 30 µM
same,%max,[6],71%
same,EC50,[6],1.29 µM
same,EC50,[11],> 30 µM
Cn1c(=O)n(CC(C)(C)C)c2ccc(N3CC4CCC3CN4C(=O)c3cccnc3)nc21 (racemic),AUC,[38],18 µM·h
same,F,[39],73%
same,solubility,[4],183 µM
same,half-life,[5],0.5 h
same,%max,[6],74%
same,EC50,[6],0.115 µM
same,CL free,[7],2.9 mL/min/kg
Cn1c(=O)n(CC(C)(C)C)c2ccc(N3CCCCC3)nc21,EC50,[8],> 30 µM
same,EC50,[9],> 30 µM
same,EC50,[10],> 30 µM
same,%max,[6],87%
same,EC50,[6],0.43 µM
same,EC50,[11],> 30 µM
